Assay [1] deals with Prothrombin (Homo sapiens) (UniProt P00734). Put plainly: Inhibition of antithrombin-dependant factor 2a (unknown origin) activity at 2000 ng/ml preincubated for 2 mins followed by chromogenic substrate CS-01 addition measured every 30 secs for 5 mins relative to control.
The target in assay [2] is Coagulation factor X (Bos taurus) (UniProt P00743). The assay can be described thus: Inhibition of antithrombin-dependant bovine factor 10a activity at 2000 ng/ml preincubated for 1 mins followed by chromogenic substrate S10a-11 addition measured every 30 secs for 5 mins relative to control.
Assay [3] concerns the target Coagulation factor IX/VIII (Homo sapiens, UniProt P00451+P00740). Put plainly: Inhibition of human intrinsic factor tenase using factor-10 as substrate preincubated for 2 mins followed by substrate addition for 1 min measured every 30 secs for 5 mins by chromogenic substrate S10a-11 based assay. It counts as protein-complex assay.
Assay [4] concerns Plasma. The assay can be described thus: Anticoagulant activity in human plasma assessed as concentration required for increase in clotting time after 2 mins by PT assay. In kind it is functional.
Assay [5] deals with Plasma. Put plainly: Anticoagulant activity in human plasma assessed as concentration required for increase in clotting time after 2 mins by aPTT assay. In kind it is functional.
Assay [6] relates to Plasma. Put plainly: Anticoagulant activity in human plasma assessed as concentration required for increase in clotting time after 2 mins by TT assay. It counts as functional.

Some results are limits rather than exact numbers.

We go through three compounds from ChEMBL document CHEMBL4196037, “Precise structures of fucosylated glycosaminoglycan and its oligosaccharides as novel intrinsic factor Xase inhibitors” (Eur J Med Chem, 2018).

Sequence of Coagulation factor IX/VIII (P00451 20-759 limits assumed): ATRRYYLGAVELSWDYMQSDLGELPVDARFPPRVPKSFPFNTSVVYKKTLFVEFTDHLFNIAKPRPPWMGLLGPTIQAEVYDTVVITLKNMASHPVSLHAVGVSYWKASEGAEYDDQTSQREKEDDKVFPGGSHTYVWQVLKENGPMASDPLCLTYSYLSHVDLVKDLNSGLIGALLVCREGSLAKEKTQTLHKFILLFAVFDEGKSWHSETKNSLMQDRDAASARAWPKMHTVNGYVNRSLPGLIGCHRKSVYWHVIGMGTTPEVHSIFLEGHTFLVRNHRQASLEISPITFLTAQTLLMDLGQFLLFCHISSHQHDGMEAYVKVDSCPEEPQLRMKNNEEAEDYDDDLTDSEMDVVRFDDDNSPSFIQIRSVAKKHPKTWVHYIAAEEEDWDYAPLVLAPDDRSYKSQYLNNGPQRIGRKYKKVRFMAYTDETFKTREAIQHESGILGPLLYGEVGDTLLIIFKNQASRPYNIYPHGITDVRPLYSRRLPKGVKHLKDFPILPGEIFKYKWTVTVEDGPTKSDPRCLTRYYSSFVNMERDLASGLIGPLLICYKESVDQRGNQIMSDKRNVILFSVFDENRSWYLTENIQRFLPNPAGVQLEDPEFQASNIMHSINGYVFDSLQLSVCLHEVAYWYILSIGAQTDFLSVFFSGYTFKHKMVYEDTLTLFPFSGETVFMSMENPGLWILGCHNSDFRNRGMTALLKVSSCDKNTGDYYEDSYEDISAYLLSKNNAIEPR
Sequence of Coagulation factor IX/VIII (P00451 1668-2351 limits assumed): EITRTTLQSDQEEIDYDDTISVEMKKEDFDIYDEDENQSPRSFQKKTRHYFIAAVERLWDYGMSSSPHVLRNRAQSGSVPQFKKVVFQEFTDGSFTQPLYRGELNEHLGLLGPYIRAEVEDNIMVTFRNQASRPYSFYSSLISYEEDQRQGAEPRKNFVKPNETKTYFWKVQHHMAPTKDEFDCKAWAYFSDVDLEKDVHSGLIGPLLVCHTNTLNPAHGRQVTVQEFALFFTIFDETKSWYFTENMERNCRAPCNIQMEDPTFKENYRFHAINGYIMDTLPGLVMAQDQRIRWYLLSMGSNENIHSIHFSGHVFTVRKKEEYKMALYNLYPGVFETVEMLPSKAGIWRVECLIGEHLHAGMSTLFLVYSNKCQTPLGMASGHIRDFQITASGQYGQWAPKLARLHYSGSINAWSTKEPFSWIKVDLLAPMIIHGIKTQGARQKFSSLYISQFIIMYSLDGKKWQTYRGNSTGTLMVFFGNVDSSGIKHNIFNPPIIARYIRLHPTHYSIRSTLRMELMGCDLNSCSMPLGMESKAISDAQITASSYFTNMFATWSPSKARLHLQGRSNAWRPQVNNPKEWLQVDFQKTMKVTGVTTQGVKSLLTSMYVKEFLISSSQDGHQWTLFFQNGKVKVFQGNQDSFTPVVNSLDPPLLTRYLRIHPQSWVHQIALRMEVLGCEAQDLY
Sequence of Coagulation factor IX/VIII (P00740 47-191 limits assumed): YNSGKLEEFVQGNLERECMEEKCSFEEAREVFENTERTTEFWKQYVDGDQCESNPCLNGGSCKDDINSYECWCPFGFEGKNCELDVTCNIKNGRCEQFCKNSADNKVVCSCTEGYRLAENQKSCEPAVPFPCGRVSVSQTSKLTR
Sequence of Coagulation factor IX/VIII (P00740 227-461 limits assumed): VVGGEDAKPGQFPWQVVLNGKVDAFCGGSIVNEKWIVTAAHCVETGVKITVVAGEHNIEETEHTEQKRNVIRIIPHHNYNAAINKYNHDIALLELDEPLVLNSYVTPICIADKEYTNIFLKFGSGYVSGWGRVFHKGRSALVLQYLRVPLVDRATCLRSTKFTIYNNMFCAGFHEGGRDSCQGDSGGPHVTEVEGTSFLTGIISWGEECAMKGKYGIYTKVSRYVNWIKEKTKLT
Sequence of Coagulation factor X (Bos taurus) (P00743 41-180 limits assumed): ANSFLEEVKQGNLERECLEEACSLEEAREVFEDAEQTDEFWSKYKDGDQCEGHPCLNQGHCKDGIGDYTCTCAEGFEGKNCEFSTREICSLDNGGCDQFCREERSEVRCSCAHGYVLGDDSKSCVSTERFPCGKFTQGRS
Sequence of Coagulation factor X (Bos taurus) (P00743 234-492 limits assumed): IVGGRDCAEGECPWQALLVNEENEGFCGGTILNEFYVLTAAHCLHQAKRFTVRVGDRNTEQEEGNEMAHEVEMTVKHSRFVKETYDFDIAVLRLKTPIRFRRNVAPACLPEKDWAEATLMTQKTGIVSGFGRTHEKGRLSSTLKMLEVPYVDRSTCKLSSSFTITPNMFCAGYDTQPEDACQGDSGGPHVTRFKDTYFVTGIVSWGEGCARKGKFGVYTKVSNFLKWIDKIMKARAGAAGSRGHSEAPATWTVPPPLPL

In general, inhibition refers to the drop in the measured response relative to a control, in per cent. A higher inhibition goes with a response far below the control. As usually defined, the IC50 is the concentration that gives 50% inhibition. Lower therefore signals greater potency in that assay. `CC(=O)N[C@H]1[C@H](O[C@@H]([C@H](O[C@@H]2O[C@@H](C)[C@@H](OS(=O)(=O)[O-])[C@@H](O)[C@@H]2OS(=O)(=O)[O-])[C@@H](O)CO)[C@H](O)C(=O)[O-])O[C@H](COS(=O)(=O)[O-])[C@H](OS(=O)(=O)[O-])[C@@H]1O[C@@H]1OC(C(=O)[O-])=C[C@H](O[C@@H]2O[C@@H](C)[C@@H](OS(=O)(=O)[O-])[C@@H](O)[C@@H]2OS(=O)(=O)[O-])[C@H]1O.[Na+].[Na+].[Na+].[Na+].[Na+].[Na+].[Na+].[Na+]`: the inhibition in assay [1] and in assay [2] was under 10% in each case. Besides, the midpoint of inhibition in assay [3], the IC50, lay at 1150 nM. For the same compound, the 2PT with Plasma [4] was over 128 µg/mL. Further, the 2aPTT in the assay with Plasma [5] amounted to 106.9 µg/mL. Besides, the 2TT in the assay on Plasma [6] is over 128 µg/mL.

For `CC(=O)N[C@@H](CO)[C@@H](O[C@@H]1OC(C(=O)[O-])=C[C@H](O[C@@H]2O[C@@H](C)[C@@H](OS(=O)(=O)[O-])[C@@H](O)[C@@H]2OS(=O)(=O)[O-])[C@H]1O)[C@@H](OS(=O)(=O)[O-])[C@H](O)COS(=O)(=O)[O-].[Na+].[Na+].[Na+].[Na+].[Na+]`, the inhibition in assay [1] and in assay [2] was under 10% throughout. Further, in assay [3], the IC50 was 2420 nM. Besides, the 2PT with Plasma [4] was over 128 µg/mL. The 2aPTT in the assay with Plasma [5] was over 128 µg/mL. The 2TT in the assay with Plasma [6] is over 128 µg/mL.

`CC(=O)N[C@H]1[C@H](O[C@@H]([C@H](O[C@@H]2O[C@@H](C)[C@@H](OS(=O)(=O)[O-])[C@@H](O)[C@@H]2OS(=O)(=O)[O-])[C@@H](O)CO)[C@H](O)C(=O)[O-])O[C@H](COS(=O)(=O)[O-])[C@H](OS(=O)(=O)[O-])[C@@H]1O[C@@H]1O[C@H](C(=O)[O-])[C@@H](O[C@@H]2O[C@H](COS(=O)(=O)[O-])[C@H](OS(=O)(=O)[O-])[C@H](O[C@@H]3OC(C(=O)[O-])=C[C@H](O[C@@H]4O[C@@H](C)[C@@H](OS(=O)(=O)[O-])[C@@H](O)[C@@H]4OS(=O)(=O)[O-])[C@H]3O)[C@H]2NC(C)=O)[C@H](O[C@@H]2O[C@@H](C)[C@@H](OS(=O)(=O)[O-])[C@@H](O)[C@@H]2OS(=O)(=O)[O-])[C@H]1O.[Na+].[Na+].[Na+].[Na+].[Na+].[Na+].[Na+].[Na+].[Na+].[Na+].[Na+].[Na+].[Na+]`: the inhibition in assay [1] and in assay [2] was under 10% each time. The IC50 in assay [3] is 98.7 nM. Further, the 2PT in the assay with Plasma [4] is over 128 µg/mL. The 2aPTT in the assay on Plasma [5] was 14.43 µg/mL. The 2TT with Plasma [6] was over 128 µg/mL.
